Results on 13 compounds are retold here after patent US20260116920A1, “HUMAN TRANSFERRIN RECEPTOR BINDING PEPTIDE” (PEPTIDREAM INC., priority 2021, published 2026).

Starred links: 1 amine or outer side, 2 acyl side, 3 side chain; linkers in the order of their positions; H or OH if unused. Positions of bridges follow the written chain, without caps; N, C: chain ends. Non-standard residues stand in square brackets, D forms with d. Residues, ends and D or L forms follow the SMILES beside them. *: point of attachment. Qpipzaa = (S)-2-amino-5-(4-(carboxymethyl)piperazin-1-yl)-5-oxopentanoic acid, O=C(CC[C@H](N[*:1])C(=O)[*:2])N1CCN(CC(=O)[*:3])CC1; F4aao = (S)-2-amino-3-(4-(carboxymethoxy)phenyl)propanoic acid, O=C([C@H](Cc1ccc(OCC(=O)[*:3])cc1)N[*:1])[*:2]; Trp(1-CH2CO) = O=C([C@H](Cc1cn(CC(=O)[*:3])c2ccccc12)N[*:1])[*:2]; Trp(1-CH2COOH) = N[C@@H](Cc1cn(CC(=O)O)c2ccccc12)C(=O)O; Phe(3-COOH) = N[C@@H](Cc1cccc(C(=O)O)c1)C(=O)O; Trp(7-aza) = N[C@@H](Cc1c[nH]c2ncccc12)C(=O)O; NH(CH2CH2O)8Me = COCCOCCOCCOCCOCCOCCOCCOCCN*; NMePhe(3-Cl) = CN[C@@H](Cc1cccc(Cl)c1)C(=O)O; 3Pal(6-NH2) = Nc1ccc(C[C@H](N)C(=O)O)cn1; NMeY = CN[C@@H](Cc1ccc(O)cc1)C(=O)O; 3Pal = N[C@@H](Cc1cccnc1)C(=O)O; 4Pal = N[C@@H](Cc1ccncc1)C(=O)O; PEG4 = NCCOCCOCCOCCOCCC(=O)O; Carboxymethyl = O=C(O)C* Where only a bound is given, the exact number is not on record here.

For the first experiment, the target named is T1, human transferrin receptor (hTfR) (Homo sapiens, UniProt P02786).
T1 construct: made in house
T1 sequence (P02786 89-760 limits assumed): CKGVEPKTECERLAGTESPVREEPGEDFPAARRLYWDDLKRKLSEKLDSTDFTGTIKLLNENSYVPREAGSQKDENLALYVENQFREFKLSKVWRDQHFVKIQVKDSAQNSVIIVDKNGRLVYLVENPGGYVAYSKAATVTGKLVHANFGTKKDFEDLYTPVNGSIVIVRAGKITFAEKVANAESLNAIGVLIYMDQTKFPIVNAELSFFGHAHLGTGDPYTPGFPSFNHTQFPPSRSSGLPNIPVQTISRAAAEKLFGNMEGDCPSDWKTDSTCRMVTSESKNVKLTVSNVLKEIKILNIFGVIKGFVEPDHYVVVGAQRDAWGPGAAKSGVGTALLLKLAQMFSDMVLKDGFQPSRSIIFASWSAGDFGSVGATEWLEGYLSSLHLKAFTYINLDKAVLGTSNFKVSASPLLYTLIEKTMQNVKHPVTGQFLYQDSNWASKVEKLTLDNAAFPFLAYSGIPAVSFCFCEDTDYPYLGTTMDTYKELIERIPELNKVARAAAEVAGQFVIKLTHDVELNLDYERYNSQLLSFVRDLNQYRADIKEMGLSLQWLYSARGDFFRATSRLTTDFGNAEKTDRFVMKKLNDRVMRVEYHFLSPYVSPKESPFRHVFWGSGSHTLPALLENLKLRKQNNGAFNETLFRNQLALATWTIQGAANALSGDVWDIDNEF
The experiment in a line: Evaluation of molecular interaction between transferrin receptor (hTfR) and peptide using surface plasmon resonance (SPR). The class given is binding. The conditions noted are these: KD class for binding to hTfR by SPR; peptide with the linker shown in the same line; 'low signal indicates no activity'. In a few lines: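 Recombinant hTfR dimer (0.5 μM) immobilized on Ni-loaded NTA chip via EDC/NHS, ethanolamine-capped. Peptides at 5–100 nM in HEPES pH 8.0 buffer with 150 mM NaCl, 0.05% Tween 20, 0.1% BSA, 1.0% DMSO, flowed by single-cycle kinetics; KD from least-squares fit of sensorgrams.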
(In general: Surface plasmon resonance follows binding to a sensor surface in real time, without labels.)
For the compound “894_0385 ({CH2CO}-AV[NMePhe(3-Cl)]V[Trp(1-CH2CO)]NY[F4aao]II[Qpipzaa][Qpipzaa]F[NMeY]C-NH2; thioether N-15; also: linker PEG4c, place not given here)”, the SPR result was “Low signal”.

Staying with this experiment, now noted: KD class for binding to hTfR by SPR; peptide with the linker shown in the same line; 'low signal indicates no activity'; read-out: SPR.
Consider `CC[C@H](C)[C@@H]1NC(=O)[C@H](Cc2ccc(OC)cc2)NC(=O)[C@H](Cc2ccc(O)cc2)NC(=O)[C@H](CC(N)=O)NC(=O)[C@H](Cc2c[nH]c3ccccc23)NC(=O)[C@H](C(C)C)NC(=O)[C@H](Cc2cccc(Cl)c2)N(C)C(=O)[C@H](C(C)C)NC(=O)[C@H](C)NC(=O)CSC[C@@H](C(=O)NCCOCCOCCOCCOCCC(N)=O)NC(=O)[C@H](Cc2ccc(O)cc2)N(C)C(=O)[C@H](Cc2ccncc2)NC(=O)[C@H](CCC(=O)NCCOCCOCCOCCOCCOCCOCCOCCOC)NC(=O)[C@H](CCCNC(=N)N)NC(=O)[C@H]([C@@H](C)CC)NC1=O` [894_0366] ({CH2CO}-AV[NMePhe(3-Cl)]VWNYY(Me)IIRE(NH(CH2CH2O)8Me)[4Pal][NMeY]C[PEG4]-NH2; thioether N-15), for which the Kd was in the range of 1 to 100 nM.
Consider `CC[C@H](C)[C@@H]1NC(=O)[C@H](Cc2ccc(OCC(=O)O)cc2)NC(=O)[C@H](Cc2ccc(O)cc2)NC(=O)[C@H](CC(N)=O)NC(=O)[C@H](Cc2cn(CC(=O)O)c3ccccc23)NC(=O)[C@H](C(C)C)NC(=O)[C@H](Cc2cccc(Cl)c2)N(C)C(=O)[C@H](C(C)C)NC(=O)[C@H](C)NC(=O)CSC[C@@H](C(=O)NCCOCCOCCOCCOCCC(N)=O)NC(=O)[C@H](Cc2ccc(O)cc2)N(C)C(=O)[C@H](Cc2ccccc2)NC(=O)[C@H](CCCNC(=N)N)NC(=O)[C@H](CCCCNC(=O)OC)NC(=O)[C@H]([C@@H](C)CC)NC1=O` [894_0378], for which the Kd is less than 1 nM.
On the same count and under the same terms, with `CC[C@H](C)[C@@H]1NC(=O)[C@H](Cc2cccnc2)NC(=O)[C@H](Cc2ccc(N)nc2)NC(=O)[C@H](CC(N)=O)NC(=O)[C@H](Cc2c[nH]c3ccccc23)NC(=O)[C@H](C(C)C)NC(=O)[C@H](Cc2cccc(Cl)c2)N(C)C(=O)[C@H](C(C)C)NC(=O)[C@H](C)NC(=O)CSC[C@@H](C(=O)NCCOCCOCCOCCOCCC(N)=O)NC(=O)[C@H](Cc2ccc(O)cc2)N(C)C(=O)[C@H](Cc2cccc(C(=O)O)c2)NC(=O)[C@H](CCCNC(=N)N)NC(=O)[C@H](CCCNC(=N)N)NC(=O)[C@H]([C@@H](C)CC)NC1=O` [SEQ ID No. 198] ({CH2CO}-AV[NMePhe(3-Cl)]VWN[3Pal(6-NH2)][3Pal]IIRR[Phe(3-COOH)][NMeY]C[PEG4]-NH2; thioether N-15) the figure was 1 to 100 nM.

The same experiment, now with this note: peptide with linker, surface plasmon resonance; read-out: SPR (KD class for binding to hTfR).
In the case of `CC[C@H](C)[C@@H]1NC(=O)[C@H](Cc2ccc(OCC(=O)O)cc2)NC(=O)[C@H](Cc2ccc(N)nc2)NC(=O)[C@H](CC(N)=O)NC(=O)[C@H](Cc2c[nH]c3ncccc23)NC(=O)[C@H](C(C)C)NC(=O)[C@H](Cc2cccc(Cl)c2)N(C)C(=O)[C@H](C(C)C)NC(=O)[C@H](C)NC(=O)CSC[C@@H](C(=O)NCCOCCOCCOCCOCCC(N)=O)NC(=O)[C@H](Cc2ccc(O)cc2)N(C)C(=O)[C@H](CCC(=O)NCCOCCOCCOCCOCCOCCOCCOCCOC)NC(=O)[C@H](CCCNC(=N)N)NC(=O)[C@H](CCC(=O)NCCOCCOCCOCCOCCOCCOCCOCCOC)NC(=O)[C@H]([C@@H](C)CC)NC1=O` [compound 232] ({CH2CO}-AV[NMePhe(3-Cl)]V[Trp(7-aza)]N[3Pal(6-NH2)]Y(Carboxymethyl)IIE(NH(CH2CH2O)8Me)RE(NH(CH2CH2O)8Me)[NMeY]C[PEG4]-NH2; thioether N-15), the Kd was 100 to 1000 nM.
Still for that read-out and setting: with `CC[C@H](C)[C@@H]1NC(=O)[C@H](Cc2ccc(OCC(=O)O)cc2)NC(=O)[C@H](Cc2ccc(N)nc2)NC(=O)[C@H](CC(N)=O)NC(=O)[C@H](Cc2cn(CC(=O)O)c3ccccc23)NC(=O)[C@H](C(C)C)NC(=O)[C@H](Cc2cccc(Cl)c2)N(C)C(=O)[C@H](C(C)C)NC(=O)[C@H](C)NC(=O)CSC[C@@H](C(=O)NCCOCCOCCOCCOCCC(N)=O)NC(=O)[C@H](Cc2ccc(O)cc2)N(C)C(=O)[C@H](Cc2cccc(C(=O)O)c2)NC(=O)[C@H](CCCNC(=N)N)NC(=O)[C@H](CCC(=O)NCCOCCOCCOCCOCCOCCOCCOCCOC)NC(=O)[C@H]([C@@H](C)CC)NC1=O` [compound 223] ({CH2CO}-AV[NMePhe(3-Cl)]V[Trp(1-CH2COOH)]N[3Pal(6-NH2)]Y(Carboxymethyl)IIE(NH(CH2CH2O)8Me)R[Phe(3-COOH)][NMeY]C[PEG4]-NH2; thioether N-15) the figure was 1 to 100 nM.

Staying with this experiment, now noted: surface plasmon resonance, binding to hTfR; KD class symbol; read-out: SPR (KD value).
For `CC[C@H](C)[C@@H]1NC(=O)[C@H](Cc2ccc(OCC(=O)O)cc2)NC(=O)[C@H](Cc2ccc(N)nc2)NC(=O)[C@H](CC(N)=O)NC(=O)[C@H](Cc2c[nH]c3ccccc23)NC(=O)[C@H](C(C)C)NC(=O)[C@H](Cc2cccc(Cl)c2)N(C)C(=O)[C@H](C(C)C)NC(=O)[C@H](C)NC(=O)CSC[C@@H](C(=O)NCCOCCOCCOCCOCCC(N)=O)NC(=O)[C@H](Cc2ccc(O)cc2)N(C)C(=O)[C@H](Cc2ccncc2)NC(=O)[C@H](CCCNC(=N)N)NC(=O)[C@H](CCC(=O)NCCOCCOCCOCCOCCOCCOCCOCCOC)NC(=O)[C@H]([C@@H](C)CC)NC1=O` [compound 141], the Kd was 100 to 1000 nM.
The same measure, in the same setting: with `CC[C@H](C)[C@@H]1NC(=O)[C@H](Cc2ccc(O)cc2)NC(=O)[C@H](Cc2ccc(O)cc2)NC(=O)[C@H](CC(N)=O)NC(=O)[C@H](Cc2c[nH]c3ccc(Cl)cc23)NC(=O)[C@H](C(C)C)NC(=O)[C@H](Cc2ccccc2)N(C)C(=O)[C@H](C(C)C)NC(=O)[C@H](C)NC(=O)CSC[C@@H](C(=O)NCCOCCOCCOCCOCCC(N)=O)NC(=O)[C@H](Cc2ccc(O)cc2)N(C)C(=O)[C@H](Cc2ccccc2)NC(=O)[C@H](CCCNC(=N)N)NC(=O)[C@H](CCCNC(=N)N)NC(=O)[C@H]([C@@H](C)CC)NC1=O` [compound 18] the figure was less than 1 nM.
`CC[C@H](C)[C@@H]1NC(=O)[C@H](Cc2ccc(OC)cc2)NC(=O)[C@H](Cc2ccc(O)cc2)NC(=O)[C@H](CC(N)=O)NC(=O)[C@H](Cc2cn(CC(=O)O)c3ccccc23)NC(=O)[C@H](C(C)C)NC(=O)[C@H](Cc2cccc(Cl)c2)N(C)C(=O)[C@H](C(C)C)NC(=O)[C@H](C)NC(=O)CSC[C@@H](C(=O)NCC(=O)N[C@H](CCC(=O)O)C(=O)N[C@H](CCC(=O)O)C(=O)N[C@H](CCC(=O)O)C(=O)N[C@H](CO)C(=O)N[C@H](CO)C(=O)N[C@@H](CCCCN=[N+]=[N-])C(N)=O)NC(=O)[C@H](Cc2ccc(O)cc2)N(C)C(=O)[C@H](Cc2ccccc2)NC(=O)[C@H](CCCNC(=N)N)NC(=O)[C@H](CCCNC(=N)N)NC(=O)[C@H](CCC(=O)O)NC1=O` [compound 39]: the Kd is less than 1 nM.
Same read-out and setting: with `CC[C@H](C)[C@@H]1NC(=O)[C@H](Cc2cccnc2)NC(=O)[C@H](Cc2ccc(O)cc2)NC(=O)[C@H](CC(N)=O)NC(=O)[C@H](Cc2c[nH]c3ccccc23)NC(=O)[C@H](C(C)C)NC(=O)[C@H](Cc2cccc(Cl)c2)N(C)C(=O)[C@H](C(C)C)NC(=O)[C@H](C)NC(=O)CSC[C@@H](C(=O)NCCOCCOCCOCCOCCC(N)=O)NC(=O)[C@H](Cc2ccc(O)cc2)N(C)C(=O)[C@H](Cc2ccncc2)NC(=O)[C@H](CCC(=O)NCCOCCOCCOCCOCCOCCOCCOCCOC)NC(=O)[C@H](CCCNC(=N)N)NC(=O)[C@H]([C@@H](C)CC)NC1=O` [compound 94] ({CH2CO}-AV[NMePhe(3-Cl)]VWNY[3Pal]IIRE(NH(CH2CH2O)8Me)[4Pal][NMeY]C[PEG4]-NH2; thioether N-15) the figure was 1 to 100 nM; with `CC[C@H](C)[C@@H]1NC(=O)[C@H](Cc2ccc(OCC(=O)O)cc2)NC(=O)[C@H](Cc2ccc(O)cc2)NC(=O)[C@H](CC(N)=O)NC(=O)[C@H](Cc2c[nH]c3ccccc23)NC(=O)[C@H](C(C)C)NC(=O)[C@H](Cc2cccc(Cl)c2)N(C)C(=O)[C@H](C(C)C)NC(=O)[C@H](C)NC(=O)CSC[C@@H](C(=O)NCCOCCOCCOCCOCCC(N)=O)NC(=O)[C@H](Cc2ccc(O)cc2)N(C)C(=O)[C@H](Cc2ccccc2)NC(=O)[C@H](CCCNC(=N)N)NC(=O)[C@H](CCC(=O)NCCOCCOCCOCCOCCOCCOCCOCCOC)NC(=O)[C@H]([C@@H](C)CC)NC1=O` [compound 112], less than 1 nM; with `CC[C@H](C)[C@@H]1NC(=O)[C@H](Cc2ccc(OCC(=O)O)cc2)NC(=O)[C@H](Cc2ccc(O)cc2)NC(=O)[C@H](CC(N)=O)NC(=O)[C@H](Cc2c[nH]c3ncccc23)NC(=O)[C@H](C(C)C)NC(=O)[C@H](Cc2cccc(Cl)c2)N(C)C(=O)[C@H](C(C)C)NC(=O)[C@H](C)NC(=O)CSC[C@@H](C(=O)NCCOCCOCCOCCOCCC(N)=O)NC(=O)[C@H](Cc2cccc(C(=O)NCCOCCOCCOCCOC)c2)N(C)C(=O)[C@H](Cc2cccc(C(=O)NCCOCCOCCOCCOC)c2)NC(=O)[C@H](CCCNC(=N)N)NC(=O)[C@H](CCC(N)=O)NC(=O)[C@H]([C@@H](C)CC)NC1=O` [compound 132], 1 to 100 nM.
For the compound `CC[C@H](C)[C@@H]1NC(=O)[C@H](Cc2ccc(OCC(=O)O)cc2)NC(=O)[C@H](Cc2ccc(O)cc2)NC(=O)[C@H](CC(N)=O)NC(=O)[C@H](Cc2cn(CC(=O)O)c3ccccc23)NC(=O)[C@H](C(C)C)NC(=O)[C@H](Cc2cccc(Cl)c2)N(C)C(=O)[C@H](C(C)C)NC(=O)[C@H](C)NC(=O)CSC[C@@H](C(=O)NCCOCCOCCOCCOCCC(N)=O)NC(=O)[C@H](Cc2ccc(O)cc2)N(C)C(=O)[C@H](Cc2ccccc2)NC(=O)[C@H](CCCNC(=N)N)NC(=O)[C@H](CCC(N)=O)NC(=O)[C@H]([C@@H](C)CC)NC1=O` [compound 104], the Kd fell in the range of 1 to 100 nM.
